{"source": "paper PMC3204975", "about": "“A Photolyase-Like Protein from Agrobacterium tumefaciens with an Iron-Sulfur Cluster” (PLoS ONE, 2011)", "key": {"[1]": {"target": "T1, PhrA (Agrobacterium fabrum, UniProt A9CJC9)", "T1 construct": "full gene, N-terminal His6-tag (pQE30UA), expressed in E. coli XL1 blue, tag not reported cut", "T1 sequence (A9CJC9 1-479)": "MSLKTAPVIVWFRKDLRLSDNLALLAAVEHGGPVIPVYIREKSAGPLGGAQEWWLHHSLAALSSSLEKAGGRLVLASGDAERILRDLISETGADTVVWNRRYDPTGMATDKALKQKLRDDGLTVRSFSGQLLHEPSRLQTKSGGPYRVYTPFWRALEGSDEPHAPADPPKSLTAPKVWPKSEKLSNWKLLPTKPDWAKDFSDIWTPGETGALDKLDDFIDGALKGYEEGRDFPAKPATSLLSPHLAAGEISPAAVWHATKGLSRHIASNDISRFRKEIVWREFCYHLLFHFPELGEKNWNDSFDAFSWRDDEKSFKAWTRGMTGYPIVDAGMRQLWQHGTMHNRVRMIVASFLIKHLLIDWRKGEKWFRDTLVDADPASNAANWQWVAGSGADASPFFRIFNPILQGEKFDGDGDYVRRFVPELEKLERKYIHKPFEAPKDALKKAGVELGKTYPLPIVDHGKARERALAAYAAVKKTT", "experiment": "UV-vis absorption and blue-light photoreduction of co-purified cofactor", "type": "binding", "conditions": "co-purified from E. coli; 24 h dark, then 470 nm light with 10 mM DTT, pH 7.8, 4°C"}, "[2]": {"target": "T2, PhrB (Agrobacterium fabrum, UniProt A9CH39)", "T2 construct": "full gene (1524 bp, 507 residues), C-terminal 6xHis-tag (pET-21b), expressed in E. coli ER2566, tag not reported cut", "T2 sequence (A9CH39 whole entry)": "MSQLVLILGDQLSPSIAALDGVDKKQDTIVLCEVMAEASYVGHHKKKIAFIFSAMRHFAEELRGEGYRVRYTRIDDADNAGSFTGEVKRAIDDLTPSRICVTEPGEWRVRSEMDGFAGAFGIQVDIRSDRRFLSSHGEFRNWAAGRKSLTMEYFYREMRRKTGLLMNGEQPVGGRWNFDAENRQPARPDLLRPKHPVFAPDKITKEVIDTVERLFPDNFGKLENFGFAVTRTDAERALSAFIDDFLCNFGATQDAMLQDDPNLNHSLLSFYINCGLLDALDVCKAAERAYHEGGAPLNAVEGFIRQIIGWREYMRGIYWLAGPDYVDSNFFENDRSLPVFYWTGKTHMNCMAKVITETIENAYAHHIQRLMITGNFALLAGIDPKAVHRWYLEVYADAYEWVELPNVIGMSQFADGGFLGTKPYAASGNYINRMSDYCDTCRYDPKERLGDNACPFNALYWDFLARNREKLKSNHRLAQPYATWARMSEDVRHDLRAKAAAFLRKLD", "experiment": "UV-vis absorption and blue-light photoreduction of co-purified cofactor", "type": "binding", "conditions": "co-purified from E. coli; 24 h dark, then 470 nm and 405 nm light with 20 mM DTT, pH 7.8, 4°C"}}, "data": [{"compound": "Cc1cc2nc3c(=O)[nH]c(=O)nc-3n(C[C@H](O)[C@H](O)[C@H](O)COP(=O)(O)OP(=O)(O)OC[C@H]3O[C@@H](n4cnc5c(N)ncnc54)[C@H](O)[C@@H]3O)c2cc1C", "note": "[FAD]", "values": [{"measurement": "UV-vis absorption and blue-light photoreduction of co-purified cofactor", "setting": "[1]", "value": "a nearly stoichiometric ratio of both cofactors to the PhrA apoprotein was determined"}, {"measurement": "UV-vis absorption and blue-light photoreduction of co-purified cofactor", "setting": "[2]", "value": "the FAD cofactor in PhrB is photoreduced to the fully reduced FAD state"}]}]}
